Measurements as given in publication PMC11783400, “Assessment of Potential Drug–Drug Interactions for Novel Oral Melanocortin‐1 Receptor Agonist Dersimelagon” (Pharmacology Research & Perspectives, 2025).

Columns and labels:
UGT2B7 = target: T1, UGT2B7 (Homo sapiens, UniProt P16662); assay: glucuronidation inhibition in human liver microsomes; format: biochemical; conditions: substrate 3'-azido-3'-deoxythymidine; direct inhibition
T1 construct: native enzyme in human liver microsomes
T1 sequence (P16662 24-529): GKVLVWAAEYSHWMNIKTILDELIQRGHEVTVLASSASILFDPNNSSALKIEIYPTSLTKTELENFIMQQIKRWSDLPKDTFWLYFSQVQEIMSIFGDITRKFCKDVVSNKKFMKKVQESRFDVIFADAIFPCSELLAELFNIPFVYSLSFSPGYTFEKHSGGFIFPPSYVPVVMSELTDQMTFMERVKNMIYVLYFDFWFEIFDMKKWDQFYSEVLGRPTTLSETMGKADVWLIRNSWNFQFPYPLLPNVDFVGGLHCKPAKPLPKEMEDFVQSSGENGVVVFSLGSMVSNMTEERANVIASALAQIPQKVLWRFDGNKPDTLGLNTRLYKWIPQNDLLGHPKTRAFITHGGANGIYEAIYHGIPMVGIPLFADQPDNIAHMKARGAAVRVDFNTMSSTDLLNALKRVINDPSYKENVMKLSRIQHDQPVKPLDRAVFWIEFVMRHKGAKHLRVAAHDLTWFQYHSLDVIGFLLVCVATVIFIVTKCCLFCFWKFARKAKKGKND
From the text: glucuronidation inhibition in human liver microsomes on UGT2B7

OAT3 = target: T2, OAT3 (Homo sapiens, UniProt Q8TCC7); assay: uptake inhibition in HEK293 cells expressing the transporter; format: cell-based
T2 construct: gene SLC22A8; expressed in HEK293 cells
T2 sequence (Q8TCC7 1-542): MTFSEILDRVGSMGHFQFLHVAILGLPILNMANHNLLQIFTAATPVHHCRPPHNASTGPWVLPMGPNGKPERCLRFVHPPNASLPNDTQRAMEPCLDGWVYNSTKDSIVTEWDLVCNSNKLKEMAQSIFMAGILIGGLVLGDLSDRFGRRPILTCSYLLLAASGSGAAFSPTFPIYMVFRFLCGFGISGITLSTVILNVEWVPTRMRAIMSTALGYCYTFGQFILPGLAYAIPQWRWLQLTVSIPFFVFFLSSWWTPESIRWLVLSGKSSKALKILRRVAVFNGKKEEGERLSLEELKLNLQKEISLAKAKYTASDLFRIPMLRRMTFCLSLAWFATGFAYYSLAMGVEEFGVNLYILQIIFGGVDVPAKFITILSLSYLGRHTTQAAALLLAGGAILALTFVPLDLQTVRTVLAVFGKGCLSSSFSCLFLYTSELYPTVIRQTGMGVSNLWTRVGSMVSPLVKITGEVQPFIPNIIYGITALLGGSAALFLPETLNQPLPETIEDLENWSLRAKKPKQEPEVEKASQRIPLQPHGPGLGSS
From the text: uptake inhibition in HEK293 cells expressing the transporter on OAT3

CYP1A2 = target: T3, CYP1A2 (Homo sapiens, UniProt P05177); assay: CYP activity inhibition in human liver microsomes; format: biochemical; conditions: read-out: IC50 (μM) / Direct inhibition
T3 construct: native enzyme in human liver microsomes
T3 sequence (P05177 2-516): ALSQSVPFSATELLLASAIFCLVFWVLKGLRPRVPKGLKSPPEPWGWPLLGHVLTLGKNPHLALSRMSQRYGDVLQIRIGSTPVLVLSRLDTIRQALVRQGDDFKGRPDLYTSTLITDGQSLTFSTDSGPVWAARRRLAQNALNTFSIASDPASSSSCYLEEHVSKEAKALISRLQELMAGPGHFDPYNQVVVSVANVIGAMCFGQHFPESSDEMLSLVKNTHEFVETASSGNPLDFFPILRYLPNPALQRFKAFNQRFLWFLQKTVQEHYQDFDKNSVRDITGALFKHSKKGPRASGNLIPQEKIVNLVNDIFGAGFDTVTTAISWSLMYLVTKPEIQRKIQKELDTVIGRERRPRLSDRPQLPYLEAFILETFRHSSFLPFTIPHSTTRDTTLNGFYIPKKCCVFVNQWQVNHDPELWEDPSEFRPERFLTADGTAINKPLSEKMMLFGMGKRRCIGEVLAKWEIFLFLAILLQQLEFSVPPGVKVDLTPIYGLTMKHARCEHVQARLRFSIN
From the text: CYP activity inhibition in human liver microsomes on CYP1A2

OCT2 = target: T4, OCT2 (Homo sapiens, UniProt O15244); assay: uptake inhibition in HEK293 cells expressing the transporter; format: cell-based
T4 construct: gene SLC22A2; expressed in HEK293 cells
T4 sequence (O15244 1-555): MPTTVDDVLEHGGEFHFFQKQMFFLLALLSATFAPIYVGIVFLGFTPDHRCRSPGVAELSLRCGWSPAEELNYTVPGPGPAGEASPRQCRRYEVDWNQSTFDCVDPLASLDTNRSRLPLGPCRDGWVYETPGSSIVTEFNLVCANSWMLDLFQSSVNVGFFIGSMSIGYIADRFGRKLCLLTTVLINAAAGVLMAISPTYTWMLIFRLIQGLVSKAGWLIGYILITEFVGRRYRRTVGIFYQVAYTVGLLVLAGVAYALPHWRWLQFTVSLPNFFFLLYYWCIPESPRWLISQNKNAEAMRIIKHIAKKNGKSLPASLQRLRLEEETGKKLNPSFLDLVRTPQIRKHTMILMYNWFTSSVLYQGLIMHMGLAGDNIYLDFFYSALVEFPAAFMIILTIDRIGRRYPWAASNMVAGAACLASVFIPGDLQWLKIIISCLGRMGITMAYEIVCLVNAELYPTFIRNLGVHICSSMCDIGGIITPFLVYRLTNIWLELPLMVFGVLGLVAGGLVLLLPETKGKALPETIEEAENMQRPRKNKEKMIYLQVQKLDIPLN
From the text: uptake inhibition in HEK293 cells expressing the transporter on OCT2

COC[C@H]1CN(C(=O)[C@]2(F)CN(C3CCCC3)C[C@H]2c2ccc(OC)cc2)C[C@@H]1c1ccc(C(F)(F)F)cc1N1CCC(C(=O)O)CC1 [dersimelagon]
IC50 (UGT2B7): > 50 µM
IC50 (OAT3): 0.227 µM
IC50 (CYP1A2): > 100 µM
IC50 (OCT2): > 28.7 µM
